Reference: ChEMBL document CHEMBL3621049, “Imidazole derivatives show anticancer potential by inducing apoptosis and cellular senescence” (2014)
Active and inactive are the calls of the source.

Assays:
Format in all cases: functional, cell-based
CCRF-CEM = experiment: Growth inhibition of human CCRF-CEM cells at 10 uM by sulforhodamine B assay
HL-60(TB) = experiment: Growth inhibition of human HL-60(TB) cells at 10 uM by sulforhodamine B assay
K562 = experiment: Growth inhibition of human K562 cells at 10 uM by sulforhodamine B assay
MOLT-4 = experiment: Growth inhibition of human MOLT4 cells at 10 uM by sulforhodamine B assay
RPMI-8226 = experiment: Growth inhibition of human RPMI8226 cells at 10 uM by sulforhodamine B assay
SR = experiment: Growth inhibition of human SR cells at 10 uM by sulforhodamine B assay
A549 = experiment: Growth inhibition of human A549/ATCC cells at 10 uM by sulforhodamine B assay
HOP-62 = experiment: Growth inhibition of human HOP62 cells at 10 uM by sulforhodamine B assay
NCI-H226 = experiment: Growth inhibition of human NCI-H226 cells at 10 uM by sulforhodamine B assay
NCI-H23 = experiment: Growth inhibition of human NCI-H23 cells at 10 uM by sulforhodamine B assay
NCI-H322M = experiment: Growth inhibition of human NCI-H322M cells at 10 uM by sulforhodamine B assay
NCI-H460 = experiment: Growth inhibition of human NCI-H460 cells at 10 uM by sulforhodamine B assay
NCI-H522 = experiment: Growth inhibition of human NCI-H522 cells at 10 uM by sulforhodamine B assay
COLO 205 = experiment: Growth inhibition of human COLO205 cells at 10 uM by sulforhodamine B assay
HCT-116 = experiment: Growth inhibition of human HCT116 cells at 10 uM by sulforhodamine B assay
HCT-15 = experiment: Growth inhibition of human HCT15 cells at 10 uM by sulforhodamine B assay
HT-29 = experiment: Growth inhibition of human HT-29 cells at 10 uM by sulforhodamine B assay
KM12 = experiment: Growth inhibition of human KM12 cells at 10 uM by sulforhodamine B assay
SW-620 = experiment: Growth inhibition of human SW620 cells at 10 uM by sulforhodamine B assay
SF-268 = experiment: Growth inhibition of human SF268 cells at 10 uM by sulforhodamine B assay
SF-295 = experiment: Growth inhibition of human SF295 cells at 10 uM by sulforhodamine B assay
SF-539 = experiment: Growth inhibition of human SF539 cells at 10 uM by sulforhodamine B assay
SNB-19 = experiment: Growth inhibition of human SNB19 cells at 10 uM by sulforhodamine B assay
SNB-75 = experiment: Growth inhibition of human SNB75 cells at 10 uM by sulforhodamine B assay
U-251 = experiment: Growth inhibition of human U251 cells at 10 uM by sulforhodamine B assay
LOX IMVI = experiment: Growth inhibition of human LOXIMVI cells at 10 uM by sulforhodamine B assay
M14 = experiment: Growth inhibition of human M14 cells at 10 uM by sulforhodamine B assay
MDA-MB-435 = experiment: Growth inhibition of human MDA-MB-435 cells at 10 uM by sulforhodamine B assay
SK-MEL-2 = experiment: Growth inhibition of human SK-MEL-2 cells at 10 uM by sulforhodamine B assay
SK-MEL-28 = experiment: Growth inhibition of human SK-MEL-28 cells at 10 uM by sulforhodamine B assay
SK-MEL-5 = experiment: Growth inhibition of human SK-MEL-5 cells at 10 uM by sulforhodamine B assay
UACC-257 = experiment: Growth inhibition of human UACC257 cells at 10 uM by sulforhodamine B assay
IGROV-1 = experiment: Growth inhibition of human IGROV1 cells at 10 uM by sulforhodamine B assay
OVCAR-3 = experiment: Growth inhibition of human OVCAR3 cells at 10 uM by sulforhodamine B assay
OVCAR-4 = experiment: Growth inhibition of human OVCAR4 cells at 10 uM by sulforhodamine B assay
OVCAR-5 = experiment: Growth inhibition of human OVCAR5 cells at 10 uM by sulforhodamine B assay
OVCAR-8 = experiment: Growth inhibition of human OVCAR8 cells at 10 uM by sulforhodamine B assay
NCI/ADR-RES = experiment: Growth inhibition of human NCI/ADR-RES cells at 10 uM by sulforhodamine B assay
SK-OV-3 = experiment: Growth inhibition of human SKOV3 cells at 10 uM by sulforhodamine B assay
786-0 = experiment: Growth inhibition of human 786-0 cells at 10 uM by sulforhodamine B assay
A498 = experiment: Growth inhibition of human A498 cells at 10 uM by sulforhodamine B assay
ACHN = experiment: Growth inhibition of human ACHN cells at 10 uM by sulforhodamine B assay
CAKI-1 = experiment: Growth inhibition of human Caki1 cells at 10 uM by sulforhodamine B assay
SN12C = experiment: Growth inhibition of human SN12C cells at 10 uM by sulforhodamine B assay
UO-31 = experiment: Growth inhibition of human UO31 cells at 10 uM by sulforhodamine B assay
PC-3 = experiment: Growth inhibition of human PC3 cells at 10 uM by sulforhodamine B assay
DU-145 = experiment: Growth inhibition of human DU145 cells at 10 uM by sulforhodamine B assay
MCF7 = experiment: Growth inhibition of human MCF7 cells at 10 uM by sulforhodamine B assay
MDA-MB-231 = experiment: Growth inhibition of human MDA-MB-231 cells at 10 uM by sulforhodamine B assay
Hs-578T = experiment: Growth inhibition of human Hs 578T cells at 10 uM by sulforhodamine B assay
BT-549 = experiment: Growth inhibition of human BT549 cells at 10 uM by sulforhodamine B assay
T47D = experiment: Growth inhibition of human T47D cells at 10 uM by sulforhodamine B assay
MDA-MB-468 = experiment: Growth inhibition of human MDA-MB-468 cells at 10 uM by sulforhodamine B assay
TK-10 = experiment: Growth inhibition of human TK10 cells at 10 uM by sulforhodamine B assay
UACC-62 = experiment: Growth inhibition of human UACC62 cells at 10 uM by sulforhodamine B assay
HOP-92 = experiment: Growth inhibition of human HOP92 cells at 10 uM by sulforhodamine B assay
Malme-3M = experiment: Growth inhibition of human MALME-3M cells at 10 uM by sulforhodamine B assay
HCC 2998 = experiment: Growth inhibition of human HCC2998 cells at 10 uM by sulforhodamine B assay
RXF 393 = experiment: Growth inhibition of human RXF393 cells at 10 uM by sulforhodamine B assay

Measured: growth inhibition (GI)

COc1cc(-c2nc(-c3ccccc3)c(-c3ccccc3)n2C2CCCCC2)ccc1OC1CCCC1
active: CCRF-CEM | HL-60(TB) | K562 | MOLT-4 | RPMI-8226 | SR | A549 | HOP-62 | NCI-H226 | NCI-H23 | NCI-H322M | NCI-H460 | NCI-H522 | COLO 205 | HCT-116 | HCT-15 | HT-29 | KM12 | SW-620 | SF-268 | SF-295 | SF-539 | SNB-19 | SNB-75 | U-251 | LOX IMVI | M14 | MDA-MB-435 | SK-MEL-2 | SK-MEL-28 | SK-MEL-5 | UACC-257 | IGROV-1 | OVCAR-3 | OVCAR-4 | OVCAR-5 | OVCAR-8 | NCI/ADR-RES | SK-OV-3 | 786-0 | A498 | ACHN | CAKI-1 | SN12C | UO-31 | PC-3 | DU-145 | MCF7 | MDA-MB-231 | Hs-578T | BT-549 | T47D | MDA-MB-468 | TK-10 | UACC-62 | HOP-92 | Malme-3M | HCC 2998 | RXF 393
